Measured values reported in US6653340B1, “Compounds useful in the complement, coagulat and kallikrein pathways and method for their preparation” (BioCryst Pharmaceuticals, Inc., priority 1997, dated 2003).
Like-named read-outs stand apart in the source and are kept apart here.

Columns and labels:
[1] = biological target: kallikrein (Homo sapiens, UniProt P03952); assay: Kallikrein inhibition assay (thioester substrate); format: biochemical; details: kallikrein 0.02 units/mL; read-out: Kallikrein (Serine Protease Inhibitory Data, IC50)
kallikrein, sequence (P03952 whole entry): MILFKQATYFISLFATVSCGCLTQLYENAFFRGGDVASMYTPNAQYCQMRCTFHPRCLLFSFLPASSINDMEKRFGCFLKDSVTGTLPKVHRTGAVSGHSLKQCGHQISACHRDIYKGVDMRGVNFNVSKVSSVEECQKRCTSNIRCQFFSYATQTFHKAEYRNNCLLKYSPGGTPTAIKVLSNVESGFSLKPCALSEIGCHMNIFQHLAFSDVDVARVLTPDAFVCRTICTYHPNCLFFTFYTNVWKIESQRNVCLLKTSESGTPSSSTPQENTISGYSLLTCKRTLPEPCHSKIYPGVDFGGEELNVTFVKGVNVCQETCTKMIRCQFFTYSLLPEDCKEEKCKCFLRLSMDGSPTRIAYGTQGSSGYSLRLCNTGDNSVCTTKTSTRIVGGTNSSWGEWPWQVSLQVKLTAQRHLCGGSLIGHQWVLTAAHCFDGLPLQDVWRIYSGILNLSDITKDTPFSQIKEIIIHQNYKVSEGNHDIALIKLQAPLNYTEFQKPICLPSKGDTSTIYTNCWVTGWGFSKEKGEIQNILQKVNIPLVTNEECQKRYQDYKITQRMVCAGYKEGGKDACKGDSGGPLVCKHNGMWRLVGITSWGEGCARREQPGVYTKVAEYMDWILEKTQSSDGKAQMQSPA
Description: (§1) The compounds to be tested were dissolved in a stock solution of DMSO at 10.0 or 100 mM. A portion of this stock solution was added to assay buffer in a final volume of 100 μL containing the enzyme of interest. Controls included buffer alone and enzyme solutions to which DMSO was added. Substrate was added to the reaction wells immediately or after incubation at room temperature. The reaction rates were measured spectrophotometrically by the generation of product at 405 nm for 200 sec. Background absorbance at 690 nm was measured and subtracted from the absorbance at 405 nm for each well.
(§2) The reaction rate for enzyme alone was compared to the rate of enzyme in the presence of inhibitor and the percent inhibition was calculated as shown below:
(§3) Percent Inhibition=[Rate without inhibitor−Rate with inhibitor)/(Rate without inhibitor)]×100
(§4) Compounds in the examples were tested a minimum of three times.
(§5) Thrombin was assayed at 12.5 U/ml using 0.37 mM N-Benzoyl-Phe-Val-Arg-p-nitroanilide (Svendsen, L.; Blomback B.; Blomback, M.; Olsson, P. I. Substrate for determination of trypsin, thrombin and thrombin-like enzymes. Folia Haematol. 1972, 98, 446-454.) as the substrate in 100 mM HEPES, 10 mM CaCl2, 10% DMSO, pH 7.5. Factor Xa, 0.5 U/mL, was assayed in 50 mM HEPES, 150 mM NaCl, 10 mM CaCl2, pH 8.0 using Chromozyme X, 0.17 mM, as the substrate. Plasmin (0.004 units/mL), factor XIIa ([…]) and kallikrein (0.02 units/mL were assayed using modifications of the techniques originally described by McRae, et al. (Biochemistry. 1981, 20, 7196-7206). The assays were run in 200 mM triethanolamine, pH 7.8 and 100 mM Tris-HCl, 100 mM EDTA, […] using Z-Lys-SBzl, 0.13 mM and […], 0.16 mM, as substrates, respectively.

[2] = biological target: Factor Xa (Homo sapiens, UniProt P00742); assay: Factor Xa inhibition assay (Chromozyme X substrate); format: biochemical; details: Factor Xa 0.5 U/mL, pH 8.0; read-out: Xa (Serine Protease Inhibitory Data, IC50)
Factor Xa, sequence (P00742 235-488 limits assumed): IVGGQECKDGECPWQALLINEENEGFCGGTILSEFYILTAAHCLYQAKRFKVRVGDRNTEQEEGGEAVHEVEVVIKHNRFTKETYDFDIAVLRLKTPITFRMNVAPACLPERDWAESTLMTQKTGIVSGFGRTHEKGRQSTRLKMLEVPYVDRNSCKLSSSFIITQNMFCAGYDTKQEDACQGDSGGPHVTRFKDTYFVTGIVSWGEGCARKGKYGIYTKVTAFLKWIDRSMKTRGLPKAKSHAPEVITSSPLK
Factor Xa, sequence (P00742 41-179 partner limits assumed): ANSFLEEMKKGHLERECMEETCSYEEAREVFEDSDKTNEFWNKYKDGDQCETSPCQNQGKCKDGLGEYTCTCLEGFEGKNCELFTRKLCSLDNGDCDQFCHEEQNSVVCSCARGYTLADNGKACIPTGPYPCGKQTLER
Description: as §1, §2, §3, §4, §5

[3] = biological target: T1, C1s (Homo sapiens, UniProt P09871); assay: C1s esterolytic inhibition assay (Z-Lys-SBzl substrate); format: biochemical; details: Z-Lys-SBzl 1.29 mM, C1s 3 to 13 nM; read-out: Cls (Serine Protease Inhibitory Data, IC50)
T1 sequence (P09871 16-688): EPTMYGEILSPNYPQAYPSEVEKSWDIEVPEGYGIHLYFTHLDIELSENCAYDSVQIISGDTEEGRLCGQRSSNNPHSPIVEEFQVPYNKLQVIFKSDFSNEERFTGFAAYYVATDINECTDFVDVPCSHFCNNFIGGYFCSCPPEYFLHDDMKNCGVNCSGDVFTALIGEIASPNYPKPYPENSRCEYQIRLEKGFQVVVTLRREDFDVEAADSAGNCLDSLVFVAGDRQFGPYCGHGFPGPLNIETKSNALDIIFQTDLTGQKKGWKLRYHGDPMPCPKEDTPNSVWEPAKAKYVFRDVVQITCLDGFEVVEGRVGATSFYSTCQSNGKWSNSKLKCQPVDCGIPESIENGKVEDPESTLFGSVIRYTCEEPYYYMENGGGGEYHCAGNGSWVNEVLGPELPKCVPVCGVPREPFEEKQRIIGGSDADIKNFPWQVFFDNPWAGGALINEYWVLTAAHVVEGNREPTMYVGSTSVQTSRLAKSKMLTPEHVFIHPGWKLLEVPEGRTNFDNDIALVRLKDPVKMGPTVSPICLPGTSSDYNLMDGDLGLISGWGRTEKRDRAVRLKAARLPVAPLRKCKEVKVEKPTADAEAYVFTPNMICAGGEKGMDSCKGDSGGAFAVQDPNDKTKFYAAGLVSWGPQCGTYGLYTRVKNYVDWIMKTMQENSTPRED
Description: as §1, §2, §3, §4
C1s esterolytic activity was assayed using a modification of the technique originally described by Kam using Z-Lys-SBzl, 1.29 mM as substrate and C1s at 3 to 13 nM.

[4] = biological target: Factor B (Homo sapiens, UniProt P00751); details: Ikari, N. et al. Immunology 49: 685-691, 1983; cited from earlier work
Factor B, sequence (P00751 26-764): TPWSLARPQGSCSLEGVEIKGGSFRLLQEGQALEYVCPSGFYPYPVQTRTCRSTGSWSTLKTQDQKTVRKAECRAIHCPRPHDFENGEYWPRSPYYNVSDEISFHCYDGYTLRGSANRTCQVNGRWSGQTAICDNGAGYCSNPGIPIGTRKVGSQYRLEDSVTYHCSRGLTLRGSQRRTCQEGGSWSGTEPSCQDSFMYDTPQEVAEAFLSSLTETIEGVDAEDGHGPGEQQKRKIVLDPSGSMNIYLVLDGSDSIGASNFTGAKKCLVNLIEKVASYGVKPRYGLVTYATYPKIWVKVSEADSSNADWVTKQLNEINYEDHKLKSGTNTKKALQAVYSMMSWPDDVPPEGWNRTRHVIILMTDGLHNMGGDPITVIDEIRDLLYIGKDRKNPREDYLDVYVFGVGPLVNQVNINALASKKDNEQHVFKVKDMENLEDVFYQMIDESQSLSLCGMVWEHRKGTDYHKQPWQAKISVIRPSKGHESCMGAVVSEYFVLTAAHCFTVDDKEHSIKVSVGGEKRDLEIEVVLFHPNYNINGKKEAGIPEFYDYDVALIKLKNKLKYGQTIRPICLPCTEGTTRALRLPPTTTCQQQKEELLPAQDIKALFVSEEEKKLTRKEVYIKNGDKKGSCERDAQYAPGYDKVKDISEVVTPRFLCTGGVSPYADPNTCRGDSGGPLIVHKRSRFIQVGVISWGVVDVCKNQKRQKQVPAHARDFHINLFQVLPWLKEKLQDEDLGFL

[5] = biological target: T2, Factor D (Homo sapiens, UniProt P00746); details: Inagi, R et al, Nephron 66: 285-290, 1994; cited from earlier work
T2 sequence (P00746 26-253): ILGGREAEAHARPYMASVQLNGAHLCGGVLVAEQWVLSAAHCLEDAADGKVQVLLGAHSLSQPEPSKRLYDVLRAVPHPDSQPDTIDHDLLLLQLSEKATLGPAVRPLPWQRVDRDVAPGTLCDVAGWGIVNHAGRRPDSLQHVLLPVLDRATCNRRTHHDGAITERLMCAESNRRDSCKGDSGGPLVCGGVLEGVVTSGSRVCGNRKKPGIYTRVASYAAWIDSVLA

[6] = biological target: Thrombin (Homo sapiens, UniProt P00734); assay: Thrombin inhibition assay (N-Benzoyl-Phe-Val-Arg-p-nitroanilide substrate); format: biochemical; details: thrombin 12.5 U/ml, pH 7.5; read-out: Thrombin (Serine Protease Inhibitory Data, IC50)
Description: as §1, §2, §3, §4, §5

[7] = biological target: T2, Factor D; assay: Factor D esterolytic inhibition assay (Z-Lys-SBzl substrate); format: biochemical; parameters: Factor D was purified from the urine of a patient with Fanconi syndrome by ion exchange chromatography; from tissue; host or cells: urine of a patient with Fanconi syndrome; details: Z-Lys-SBzl 1.29 mM, pH 7.5, 10% DMSO; read-out: Factor D (Serine Protease Inhibitory Data, IC50)
Description: A modification of the procedure of Volanakis (Volankis, J. E.; Barnum, S. R.; Kilpatrick, J. M. Purification and properties of human factor D. Methods in Enzymol. 1993, 223, 82-97) for purification of Factor D was utilized as described by Yamauchi (Yamauchi, Y.; Stevens, J. W.; Macon, K. J.; Volanakis, J. E. Recombinant and native zymogen forms of human complement factor D. J. Immunol. 1994, 152, 3645-3653. Briefly, Factor D was purified from the urine of a patient with Fanconi syndrome by ion exchange chromatography using BioRex 70 and two rounds of ion-exchange chromatography in a Pharmacia FPLC system using a HR5/5 Mono S column.
as §1, §2, §3, §4
An established esterolytic assay for the measurement of Factor D activity and inhibition of Factor D activity was used (Kam, C. M.; McRae, B. J.; Harper, J. W.; Niemann, M. A.; Volanakis, J. E.; Powers, J. C. Human complement proteins D, C2, and B Active site mapping with peptide thioester substrates. J Biol. Chem. 1987, 262, 3444-3451). […] Hydrolysis of this compound by Factor D liberated a free sulfhydryl group which is then reacted with 5,5′-dithiobis(2nitrobenzoic acid) producing an intense yellow color (Habeeb, A. F. S. A. Reaction of protein sulfhydryl groups with Ellman's Reagent. Methods in Enzymol. 1976, 25, 457-464.). The assays were performed in 96 well microtiter plates and rates of hydrolysis were monitored at 405 nm in a Anthos Labtec HT2 plate reader. Hydrolysis rates were reported as change in mOD/min. The assay was conducted in 100 mM HEPES, 500 mM NaCl, pH 7.5 containing 10% DMSO in a final volume of 200 μL per well.

[8] = biological target: T3, factor XIIa (Homo sapiens, UniProt P00748); assay: Factor XIIa inhibition assay (thioester substrate); format: biochemical; details: read-out: XIIa (Serine Protease Inhibitory Data, IC50)
T3 sequence (P00748 373-615 limits assumed): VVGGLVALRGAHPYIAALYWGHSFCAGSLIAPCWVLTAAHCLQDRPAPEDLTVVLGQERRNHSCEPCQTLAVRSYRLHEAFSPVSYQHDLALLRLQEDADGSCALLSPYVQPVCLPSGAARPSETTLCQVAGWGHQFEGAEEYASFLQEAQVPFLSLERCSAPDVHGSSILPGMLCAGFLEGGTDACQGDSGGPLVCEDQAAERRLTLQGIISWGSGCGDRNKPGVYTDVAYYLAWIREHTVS
Description: as §1, §2, §3, §4, §5

IC50 [1]: 12 nM
IC50 [2]: 1010 nM
IC50 [3]: 22 nM
IC50 [6]: 678 nM
IC50 [7]: 11000 nM
IC50 [8]: 114 nM
SMILES: N=C(N)c1ccc2cc(OC(=O)c3ccc(N=C(N)N)cc3)ccc2c1 [nafamostat, 6′-amidino-2-naphthyl-p-guanidinobenzoate, reference compound]
IC50 [4]: 60000 nM
IC50 [5]: 25000 nM
